Values belong to the compound of their own block, whether it stands above or below them.
What was measured:
Assay type in all cases: physicochemical
[1] = Dynamic vapor sorption (DVS); settings: 25°C; for maximum water uptake: at 95% relative humidity
Description: Dynamic vapor sorption ("DVS") measurements were obtained with a Projekt Messtechnik SPS11-100n water vapor sorption analyzer. The samples were placed into aluminum crucibles on a microbalance, and allowed to equilibrate at 25°C and 50% relative humidity before initiating the following pre-defined humidity program at 25°C: 50-95-0-50% relative humidity, and scanning with a 5% change in relative humidity per hour and with iso-humid equilibration periods at extreme values.

[2] = Thermogravimetry (TG / TG-FTIR): thermal stability; settings: N2 atmosphere, heating rate of 10°C/min
Description: Measurements of thermogravimetry coupled to Fourier transform infrared spectroscopy ("TG-FTIR") were obtained using a Netzsch Thermo-Microbalance TG 209 with a Bruker Vector 22 FT-IR Spectrometer using an aluminum crucible (with micro-hole or open), N2 atmosphere, heating rate of 10°C/min, and temperature range of 25-250°C.
Thermogravimetry ("TG") measurements were obtained with a Perkin Elmer TGS 2 thermogravimetric analyzer using an aluminum crucible (open), N2 atmosphere, heating rate of 10°C/min, and temperature range of 25-500°C.

[3] = Desolvation experiment: drying under vacuum
Description: A weight loss of from about 8.7-10% occurred due to tBME liberation. This weight loss corresponds to 0.8-0.9 tBME molecule per molecule of 20,23-dipiperidinyl-5-O-mycaminosyl-tylonolide, assuming essentially pure 20,23-dipiperidinyl-5-O-mycaminosyl-tylonolide. Almost all the weight loss occurs above 90°C, with a sharp step when the temperature increases to greater than 100°C. Thus, the majority of the weight loss occurs at temperatures greater than the boiling point of tBME.
Example 7. Preparation of the Form III polymorph of 20,23-dipiperidinyl-5-O-mycaminosyl-tylonolide. The Form III polymorph of 20,23-dipiperidinyl-5-O-mycaminosyl-tylonolide was prepared by drying, under vacuum at ambient temperature for 20 hours, the ethyl acetate S1 crystalline solvate of 20,23-dipiperidinyl-5-O-mycaminosyl-tylonolide (50 mg) prepared in accordance with Example 6.
Although this procedure was successfully repeated for forming S2 solvate crystals, additional batches of S2 solvate crystals were formed by dissolving an additional amount of the Form II polymorph of 20,23-dipiperidinyl-5-O-mycaminosyl-tylonolide in tert-butyl methyl ether, seeding S2 solvate crystals from the first batch, and removing the tert-butyl methyl ether. In one experiment, the S2 crystalline solvate was prepared by dissolving the Form II polymorph of 20,23-dipiperidinyl-5-O-mycaminosyl-tylonolide (245.7 mg) in tert-butyl methyl ether (0.5 ml), and slowly evaporating a portion of the solvent at ambient temperature. After no crystals formed, additional tert-butyl methyl ether was added, followed by seeding S2 solvate crystals from the first batch. The solvent was then allowed to evaporate completely. The FT-Raman spectrum for these crystals was approximately identical to the FT-Raman spectrum for the crystals from the first batch. […] The FT-Raman spectra of the crystals after each drying step coincided to the FT-Raman spectrum from the first batch.

[4] = Solubility in tBME; settings: solvent tBME

maximum water uptake [1]: about 2 % (by weight)
temperature at which decomposition began ([2]; TG-FTIR): greater than 220 °C
SMILES: CCC1OC(=O)CC(O)C(C)C(OC2OC(C)C(O)C(N(C)C)C2O)C(CCN2CCCCC2)CC(C)C(=O)C=CC(C)=CC1CN1CCCCC1 (stereo not drawn) [Form II polymorph, 20,23-dipiperidinyl-5-O-mycaminosyl-tylonolide]

solubility [4]: 40 to 50 mg/mL
stability ([3]; 60°C at 1 mbar (absolute) for 1 day): exhibits stability
loss of solvent upon drying under vacuum ([3]; at both ambient temperature and 70°C): no loss of solvent was observed
SMILES: CC[C@H]1OC(=O)C[C@@H](O)[C@H](C)[C@@H](O[C@@H]2O[C@H](C)[C@@H](O)[C@H](N(C)C)[C@H]2O)[C@@H](CCN2CCCCC2)C[C@@H](C)C(=O)/C=C/C(C)=C/[C@@H]1CN1CCCCC1 [tBME S2 crystalline solvate, 20,23-dipiperidinyl-5-O-mycaminosyl-tylonolide]

Continued, compound first:

SMILES: CCC1OC(=O)CC(O)C(C)C(OC2OC(C)C(O)C(N(C)C)C2O)C(CCN2CCCCC2)CC(C)C(=O)C=CC(C)=CC1CN1CCCCC1 (stereo not drawn) [Form I polymorph, 20,23-dipiperidinyl-5-O-mycaminosyl-tylonolide]
maximum water uptake [1]: less than 1 % (by weight)

SMILES: CCC1OC(=O)CC(O)C(C)C(OC2OC(C)C(O)C(N(C)C)C2O)C(CCN2CCCCC2)CC(C)C(=O)C=CC(C)=CC1CN1CCCCC1 (stereo not drawn) [Form III polymorph, 20,23-dipiperidinyl-5-O-mycaminosyl-tylonolide]
water uptake ([1]; between 70 and 85% relative humidity): about 6%
temperature at which decomposition began ([2]; TG): greater than 270 °C

SMILES: CCC1OC(=O)CC(O)C(C)C(OC2OC(C)C(O)C(N(C)C)C2O)C(CCN2CCCCC2)CC(C)C(=O)C=CC(C)=CC1CN1CCCCC1 (stereo not drawn) [ethyl acetate S1 crystalline solvate, 20,23-dipiperidinyl-5-O-mycaminosyl-tylonolide]
conversion by vacuum drying ([3]; vacuum drying at ambient temperature): readily converted into the Form III polymorph
